“And” between values parts separate entries of the source, which are not always exact repeats. Equal values may be shown once.
What was measured:
[1] = tested on: grasses; assay: Grass control in QPE-tolerant wheat treated with herbicides; type: in vivo
Procedure: (§1) Yield of QPE-tolerant wheat in bushels per acre was measured under the following conditions: where no QPE was applied, where QPE was applied alone, where one or more broadleaf herbicides were applied, and where a combination of a QPE source and a broadleaf herbicide were applied together. For each test condition, the level of both grass control and broadleaf control was recorded. Finally, the application rate of each active substance was recorded. One QPE source is Aggressor™ which comprises Quizalofop-P-ethyl 10.3%.

[2] = tested on: QPE-tolerant wheat; assay: Yield of QPE-tolerant wheat in bushels per acre; type: in vivo
Procedure: as §1

[3] = tested on: broadleaf weeds; assay: Broadleaf weed control in QPE-tolerant wheat treated with herbicides; type: in vivo
Procedure: as §1

[4] = soil; cited from earlier work
[5] = Treatment B Rate/Acre 1.00 lb ai/acre
[6] = Treatment B Rate/Acre .50 lb ai/acre
[7] = Treatment B Rate/Acre 3 fl oz/acre
[8] = Treatment B Rate/Acre 4 fl oz/acre
[9] = Treatment B Rate/Acre 5 fl oz/acre
[10] = Treatment B Rate/Acre 2 oz/acre
[11] = Treatment B Rate/Acre 4.75/acre
[12] = Treatment B Rate/Acre .90 oz/acre
[13] = Treatment B Rate/Acre .60 oz/acre
[14] = Treatment B Rate/Acre .66 oz/acre
[15] = Treatment B Rate/Acre .30 oz/acre

In the case of CNC.O=C(O)COc1ccc(Cl)cc1Cl [2,4-D Amine], the “Grass Control” value [1, 5] is reported as 0%, the “Grass Control” value [1, 6] is reported as 0% and the Yield [2, 5] is reported as 56.8 Bu/acre. For the same compound, the Yield [2, 6] was 55.7 Bu/acre, the “Broadleaf Weed Control” value [3, 5] was 90% and the “Broadleaf Weed Control” value [3, 6] was 75%.
With COc1c(Cl)ccc(Cl)c1C(=O)O [Dicamba] the “Grass Control” value [1, 7] was 0%, the “Grass Control” value [1, 8] was 0% and the “Grass Control” value [1, 9] was 0%. For the same compound, the Yield [2, 7] was 56.7 Bu/acre, the Yield [2, 8] was 57.9 Bu/acre and the Yield [2, 9] was 58.4 Bu/acre. For the same compound, the “Broadleaf Weed Control” value [3, 7] was 90%, the “Broadleaf Weed Control” value [3, 8] was 93% and the “Broadleaf Weed Control” value [3, 9] was 96%.
In the case of COc1nn(C(=O)NS(=O)(=O)c2ccccc2OC(F)(F)F)c(=O)n1C [Flucarbazone], the “Grass Control” value [1, 10] is reported as 65%, the Yield [2, 10] is reported as 67.3 Bu/acre and the “Broadleaf Weed Control” value [3, 10] is reported as 55%.
With CNC.Cc1cc(Cl)ccc1OCC(=O)O [MCPA Amine] the “Grass Control” value [1, 5] was 0%, the “Grass Control” value [1, 6] was 0% and the Yield [2, 5] was 56.9 Bu/acre. For the same compound, the Yield [2, 6] was 52.4 Bu/acre, the “Broadleaf Weed Control” value [3, 5] was 93% and the “Broadleaf Weed Control” value [3, 6] was 78%.
In the case of COc1cc(OC)nc(NC(=O)NS(=O)(=O)c2cc(CNS(C)(=O)=O)ccc2C(=O)O)n1 [Mesosulfuron], the “Grass Control” value [1, 11] is reported as 35%, the Yield [2, 11] is reported as 60.4 Bu/acre and the “Broadleaf Weed Control” value [3, 11] is reported as 50%.
In the case of CCCOc1nn(C(=O)[N-]S(=O)(=O)c2ccccc2C(=O)OC)c(=O)n1C.[Na+] [Propoxycarbazone], the “Grass Control” value [1, 12] is reported as 45%, the Yield [2, 12] is reported as 63.2 Bu/acre and the “Broadleaf Weed Control” value [3, 12] is reported as 65%.
In the case of COc1nc(C)nc(NC(=O)NS(=O)(=O)c2ccccc2CCC(F)(F)F)n1 [Prosulfuron], the “Grass Control” value [1, 13] is reported as 0%, the Yield [2, 13] is reported as 59.2 Bu/acre and the “Broadleaf Weed Control” value [3, 13] is reported as 85%.
With COc1cc(OC)n2nc(NS(=O)(=O)c3c(C(F)(F)F)ccnc3OC)nc2n1 [Pyroxsulam] the “Grass Control” value [1, 10] was 70%, the Yield [2, 10] was 60.3 Bu/acre and the “Broadleaf Weed Control” value [3, 10] was 30%.
For CCOC(=O)[C@@H](C)Oc1ccc(Oc2cnc3cc(Cl)ccc3n2)cc1 [Quizalofop-p-ethyl], the Koc [4] is given as 510 and 570.
In the case of CCS(=O)(=O)c1nc2ccccn2c1S(=O)(=O)NC(=O)Nc1nc(OC)cc(OC)n1 [Sulfosulfuron], the “Grass Control” value [1, 14] is reported as 55% and the “Broadleaf Weed Control” value [3, 14] is reported as 60%.
For COc1nc(C)nc(N(C)C(=O)NS(=O)(=O)c2ccccc2C(=O)O)n1 [Tribenuron], the “Grass Control” value [1, 15] was 0%, the Yield [2, 15] was 58.4 Bu/acre and the “Broadleaf Weed Control” value [3, 15] was 93%.

— patent US11576381B2, “Composition and a method of using the composition to increase wheat yield” (priority 2019, dated 2023)
